US8722849B2, “Polypeptides” (Novo Nordisk A/S, priority 2011, dated 2014)
≈ marks a conversion by molar mass, not a printed value. Where two headings read alike, the source gives them in different places. Starred links: 1 amine or outer side, 2 acyl side, 3 side chain; linkers in the order of their positions; H or OH if unused. Positions of bridges follow the written chain, without caps; N, C: chain ends. Residues, ends and D or L forms follow the SMILES beside them. *: point of attachment. C20 diacid = O=C(O)CCCCCCCCCCCCCCCCCCC(=O)*; γGlu = O=C(O)[C@H](CCC(=O)[*:2])N[*:1]

Legend:
[1] = molecular target: T1, human amylin receptor (amylin 3(a) receptor: human calcitonin receptor + RAMP-3) (Homo sapiens, UniProt O60896+P30988); test: Assay (II)a functional CRE-luciferase assay, human amylin receptor; format: cell-based
T1 construct: expressed in transfected cells; host or cells: BHK570
T1 sequence (P30988 25-474): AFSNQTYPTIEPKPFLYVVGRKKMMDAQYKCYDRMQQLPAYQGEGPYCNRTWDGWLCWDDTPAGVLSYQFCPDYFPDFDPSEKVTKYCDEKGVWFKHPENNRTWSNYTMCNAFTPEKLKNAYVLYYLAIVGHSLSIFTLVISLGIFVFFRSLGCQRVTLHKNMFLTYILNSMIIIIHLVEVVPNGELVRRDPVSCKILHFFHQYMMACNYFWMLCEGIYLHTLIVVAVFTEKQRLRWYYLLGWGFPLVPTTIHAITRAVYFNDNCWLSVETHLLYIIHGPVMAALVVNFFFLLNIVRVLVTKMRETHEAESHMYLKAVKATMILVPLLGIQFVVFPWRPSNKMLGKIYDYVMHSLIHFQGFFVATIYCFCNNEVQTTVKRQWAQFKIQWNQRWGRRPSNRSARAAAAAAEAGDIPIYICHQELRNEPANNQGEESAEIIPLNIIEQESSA
T1 sequence (O60896 24-148 partner): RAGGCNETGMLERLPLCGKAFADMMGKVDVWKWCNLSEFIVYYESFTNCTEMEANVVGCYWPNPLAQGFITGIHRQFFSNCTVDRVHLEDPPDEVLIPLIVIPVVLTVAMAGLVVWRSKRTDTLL

[2] = molecular target: T2, human calcitonin receptor (Homo sapiens, UniProt P30988); test: Assay (II)a functional CRE-luciferase assay, human calcitonin receptor; format: cell-based
T2 construct: expressed in transfected cells; host or cells: BHK570
T2 sequence (P30988 25-474): T1 sequence (P30988 25-474)

[3] = Assay (III) ThT fibrillation assay for physical stability; format: physicochemical
Outline: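 Freshly prepared formulations, pH-adjusted, with 1 μM ThT; four or eight replicates incubated at 37 °C under 960 rpm orbital shaking. Fluorescence (ex 444/em 485 nm) read every 20 min; […]. Peptide concentration measured by RP-HPLC before and after the run.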

[4] = Assay (IV) determination of solubility; format: physicochemical
Outline: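 Solubility was profiled across pH 3.0–8.0 after 18 hours at room temperature: a ~500 nmol/ml aqueous polypeptide solution was diluted 1:1 into 100 mM glycylglycine or bistrispropane buffers. After centrifugation, HPLC gave the dissolved concentration.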

[5] = Table 2, BHK amylin 3(a)-receptor/CRE-luc cells
[6] = Table 7, human calcitonin (CTa) receptor
[7] = bistrispropane buffer, pH 6, pH 6.0, read-out: Solubility pH 6.0
[8] = bistrispropane buffer, pH 6.5, pH 6.5, read-out: Solubility pH 6.5
[9] = bistrispropane buffer, pH 7, pH 7.0, read-out: Solubility pH 7.0
[10] = bistrispropane buffer, pH 7.5, pH 7.5, read-out: Solubility pH 7.5
[11] = bistrispropane buffer, pH 8, pH 8.0, read-out: Solubility pH 8.0
[12] = glycylglycine buffer, pH 3, pH 3.0, read-out: Solubility pH 3.0
[13] = glycylglycine buffer, pH 4, pH 4.0, 18 hours at room temperature, Table 2, read-out: Solubility pH 4.0
[14] = glycylglycine buffer, pH 4, pH 4.0, read-out: Solubility pH 4.0
[15] = glycylglycine buffer, pH 5, pH 5.0, read-out: Solubility pH 5.0

Structure (SMILES)	EC50 [1, 5]	EC50 [2, 6]	ThT pH 4.0 lag time ([3]; ThT fibrillation assay)	ThT pH 4.0 lag time (h) ([3]; ThT fibrillation assay)	solubility at 18 h [4, 7]	solubility at 18 h [4, 8]	solubility at 18 h [4, 9]	solubility at 18 h [4, 10]	solubility at 18 h [4, 11]	solubility at 18 h [4, 12]	solubility at 18 h [4, 13]	solubility at 18 h [4, 14]	solubility at 18 h [4, 15]	also measured
CC[C@H](C)[C@H](NC(=O)[C@@H]1CCCN1C(=O)CNC(=O)[C@H](Cc1ccccc1)NC(=O)[C@H](CC(N)=O)NC(=O)[C@H](CC(N)=O)NC(=O)[C@H](CO)NC(=O)[C@H](CO)NC(=O)[C@H](Cc1c[nH]cn1)NC(=O)[C@H](Cc1c[nH]cn1)NC(=O)[C@H](CC(C)C)NC(=O)[C@H](Cc1ccccc1)NC(=O)[C@H](CCC(=O)O)NC(=O)[C@H](C)NC(=O)[C@H](CC(C)C)NC(=O)[C@H](CCCNC(=N)N)NC(=O)[C@H](CCC(N)=O)NC(=O)[C@@H](NC(=O)[C@H](C)NC(=O)[C@@H]1CSSC[C@H](NC(=O)[C@H](CCCCN)NC(=O)CC[C@H](NC(=O)CCCCCCCCCCCCCCCCCCC(=O)O)C(=O)O)C(=O)N[C@@H](CC(N)=O)C(=O)N[C@@H]([C@@H](C)O)C(=O)N[C@@H](C)C(=O)N[C@@H]([C@@H](C)O)C(=O)N1)[C@@H](C)O)C(=O)N[C@@H](CC(C)C)C(=O)N1CCC[C@H]1C(=O)N1CCC[C@H]1C(=O)N[C@H](C(=O)N[C@@H](CC(N)=O)C(=O)N[C@H](C(=O)NCC(=O)N[C@@H](CO)C(=O)N[C@@H](CC(N)=O)C(=O)N[C@@H](Cc1c[nH]cn1)C(=O)N[C@@H](Cc1ccc(O)cc1)C(N)=O)C(C)C)[C@@H](C)O [Example 114, N-alpha-[(S)-4-Carboxy-4-(19-carboxynonadecanoylamino)butyryl]-[Glu14,His17,His36]-pramlintide] ({C20 diacid-γGlu}-KCNTATCATQRLAEFLHHSSNNFGPILPPTNVGSNHY-NH2; disulfide 2-7 (inferred))	0.382 nM	0.113 nM	>45 h	>45 h	> 200 µM	73 µM (≈ 328 µg/mL)	14 µM (≈ 62.9 µg/mL)	31 µM (≈ 139 µg/mL)	79 µM (≈ 355 µg/mL)	> 200 µM	> 200 µM	> 200 µM	> 200 µM	–
CC[C@H](C)[C@H](NC(=O)[C@@H]1CCCN1C(=O)CNC(=O)[C@H](Cc1ccccc1)NC(=O)[C@H](CC(N)=O)NC(=O)[C@H](CC(N)=O)NC(=O)[C@H](CO)NC(=O)[C@H](CO)NC(=O)[C@H](Cc1c[nH]cn1)NC(=O)[C@H](Cc1c[nH]cn1)NC(=O)[C@H](CC(C)C)NC(=O)[C@H](Cc1ccccc1)NC(=O)[C@H](CCC(=O)O)NC(=O)[C@H](C)NC(=O)[C@H](CC(C)C)NC(=O)[C@H](CCCNC(=N)N)NC(=O)[C@H](CCC(N)=O)NC(=O)[C@@H](NC(=O)[C@H](C)NC(=O)[C@@H]1CSSC[C@H](NC(=O)[C@H](CCCCN)NC(=O)CC[C@H](NC(=O)CCCCCCCCCCCCCCCCCCC(=O)O)C(=O)O)C(=O)N[C@@H](CC(N)=O)C(=O)N[C@@H]([C@@H](C)O)C(=O)N[C@@H](C)C(=O)N[C@@H]([C@@H](C)O)C(=O)N1)[C@@H](C)O)C(=O)N[C@@H](CC(C)C)C(=O)N1CCC[C@H]1C(=O)N1CCC[C@H]1C(=O)N[C@H](C(=O)N[C@@H](CC(N)=O)C(=O)N[C@H](C(=O)NCC(=O)N[C@@H](CO)C(=O)N[C@@H](CCCNC(=N)N)C(=O)N[C@H](C(=O)N[C@@H](Cc1ccc(O)cc1)C(N)=O)[C@@H](C)O)C(C)C)[C@@H](C)O [Example 112, N-alpha-[(S)-4-Carboxy-4-(19-carboxynonadecanoylamino)butyryl]-[Glu14,His17,Arg35]-pramlintide] ({C20 diacid-γGlu}-KCNTATCATQRLAEFLHHSSNNFGPILPPTNVGSRTY-NH2; disulfide 2-7 (inferred); C-terminus assumed)	0.098 nM	0.104 nM	>45 h	>45 h	> 200 µM	161 µM (≈ 724 µg/mL)	23 µM (≈ 103 µg/mL)	4 µM (≈ 18 µg/mL)	2 µM (≈ 9 µg/mL)	> 200 µM	> 200 µM	> 200 µM	> 200 µM	–
CC[C@H](C)[C@H](NC(=O)[C@@H]1CCCN1C(=O)CNC(=O)[C@H](Cc1ccccc1)NC(=O)[C@H](CC(N)=O)NC(=O)[C@H](CC(N)=O)NC(=O)[C@H](CO)NC(=O)[C@H](CO)NC(=O)[C@H](Cc1c[nH]cn1)NC(=O)[C@H](CCCNC(=N)N)NC(=O)[C@H](CC(C)C)NC(=O)[C@H](Cc1ccccc1)NC(=O)[C@H](CCC(=O)O)NC(=O)[C@H](C)NC(=O)[C@H](CC(C)C)NC(=O)[C@H](CCCNC(=N)N)NC(=O)[C@H](CCC(N)=O)NC(=O)[C@@H](NC(=O)[C@H](C)NC(=O)[C@@H]1CSSC[C@H](NC(=O)[C@H](CCC(=O)O)NC(=O)[C@H](CCCNC(=N)N)NC(=O)[C@H](CCC(=O)O)NC(=O)CC[C@H](NC(=O)CCCCCCCCCCCCCCCCCCC(=O)O)C(=O)O)C(=O)N[C@@H](CC(N)=O)C(=O)N[C@@H]([C@@H](C)O)C(=O)N[C@@H](C)C(=O)N[C@@H]([C@@H](C)O)C(=O)N1)[C@@H](C)O)C(=O)N[C@@H](CC(C)C)C(=O)N1CCC[C@H]1C(=O)N1CCC[C@H]1C(=O)N[C@H](C(=O)N[C@@H](CC(N)=O)C(=O)N[C@H](C(=O)NCC(=O)N[C@@H](CO)C(=O)N[C@@H](CC(N)=O)C(=O)N[C@H](C(=O)N1CCC[C@H]1C(N)=O)[C@@H](C)O)C(C)C)[C@@H](C)O [Example 124, N-alpha-[(S)-4-Carboxy-4-(19-carboxynonadecanoylamino)butyryl]-Glu-Arg-[Glu1,Glu14,Arg17,Pro37]-pramlintide] ({C20 diacid-γGlu}-ERECNTATCATQRLAEFLRHSSNNFGPILPPTNVGSNTP-NH2; disulfide 4-9 (inferred))	0.0895 nM	0.367 nM	>45 h	>45 h	> 200 µM	> 200 µM	> 200 µM	> 200 µM	> 200 µM	> 200 µM	> 200 µM	> 200 µM	> 200 µM	ThT pH 4.0 lag time ([3]; Table 8): >45 h; ThT pH 4.0 lag time ([3]; Table 9): >45 h; solubility at 18 h ([4]; bistrispropane buffer, pH 7, pH 7.0, 18 hours at room temperature, Table 3, read-out: Solubility pH 7.0): > 200 µM; solubility at 18 h ([4]; bistrispropane buffer, pH 7, pH 7.0, Table 8, read-out: Solubility pH 7.0): > 200 µM; solubility at 18 h ([4]; bistrispropane buffer, pH 7, pH 7.0, Table 9, read-out: Solubility pH 7.0): > 200 µM; solubility at 18 h ([4]; bistrispropane buffer, pH 7.5, pH 7.5, Table 9, read-out: Solubility pH 7.5): > 200 µM
CC[C@H](C)[C@H](NC(=O)[C@@H]1CCCN1C(=O)CNC(=O)[C@H](Cc1ccccc1)NC(=O)[C@H](CC(N)=O)NC(=O)[C@H](CC(N)=O)NC(=O)[C@H](CO)NC(=O)[C@H](CO)NC(=O)[C@H](Cc1c[nH]cn1)NC(=O)[C@@H](NC(=O)[C@H](CC(C)C)NC(=O)[C@H](Cc1ccccc1)NC(=O)[C@H](CC(N)=O)NC(=O)[C@H](C)NC(=O)[C@H](CC(C)C)NC(=O)[C@H](CCCNC(=N)N)NC(=O)[C@H](CCC(N)=O)NC(=O)[C@@H](NC(=O)[C@H](C)NC(=O)[C@@H]1CSSC[C@H](NC(=O)[C@H](CCC(=O)O)NC(=O)[C@H](CCCNC(=N)N)NC(=O)[C@H](CCC(=O)O)NC(=O)CC[C@H](NC(=O)CCCCCCCCCCCCCCCCCCC(=O)O)C(=O)O)C(=O)N[C@@H](CC(N)=O)C(=O)N[C@@H]([C@@H](C)O)C(=O)N[C@@H](C)C(=O)N[C@@H]([C@@H](C)O)C(=O)N1)[C@@H](C)O)C(C)C)C(=O)N[C@@H](CC(C)C)C(=O)N1CCC[C@H]1C(=O)N1CCC[C@H]1C(=O)N[C@H](C(=O)N[C@@H](CC(N)=O)C(=O)N[C@H](C(=O)NCC(=O)N[C@@H](CO)C(=O)N[C@@H](CC(N)=O)C(=O)N[C@H](C(=O)N1CCC[C@H]1C(N)=O)[C@@H](C)O)C(C)C)[C@@H](C)O [Example 122, N-alpha-[(S)-4-Carboxy-4-(19-carboxynonadecanoylamino)butyryl]-Glu-Arg-[Glu1,Pro37]-pramlintide] ({C20 diacid-γGlu}-ERECNTATCATQRLANFLVHSSNNFGPILPPTNVGSNTP-NH2; disulfide 4-9 (inferred); C-terminus assumed)	–	–	–	0.7 h	> 200 µM	> 200 µM	> 200 µM	> 200 µM	> 200 µM	> 200 µM	–	> 200 µM	> 200 µM	EC50 ([1]; Table 6, human amylin receptor): 0.063 nM; EC50 ([2]; Table 11, read-out: CTa receptor human EC50): 0.061 nM
